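96-well plates; 48 h exposure; 5 concentrations. Endpoints by linear interpolation between flanking doses. Not reached: highest tested concentration assigned. TGI: total growth inhibition.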
Columns and labels:
Experiment in all cases: NCI-60 cell line screen, 48 h
[1] = test system: CCRF-CEM leukemia
[2] = test system: DMS 273 small cell lung
[3] = test system: M19-MEL melanoma
[4] = test system: RXF 393 renal
[5] = test system: A498 renal
[6] = test system: M14 melanoma
[7] = test system: NCI-H522 lung
[8] = test system: HOP-18 NSCLC
[9] = test system: HCT-15 colon
[10] = test system: COLO 205 colon
[11] = test system: SK-OV-3 ovarian
[12] = test system: SN12C renal
[13] = test system: XF 498 CNS
[14] = test system: DLD-1 colon
[15] = test system: SK-MEL-5 melanoma
[16] = test system: LOX IMVI melanoma
[17] = test system: A549 NSCLC
[18] = test system: HOP-92 NSCLC
[19] = test system: SF-268 CNS
[20] = test system: HL-60(TB) leukemia
[21] = test system: DMS 114 small cell lung
[22] = test system: HT29 colon
[23] = test system: ACHN renal
[24] = test system: SK-MEL-28 melanoma
[25] = test system: UACC-62 melanoma
[26] = test system: EKVX NSCLC
[27] = test system: SF-539 CNS
[28] = test system: RPMI-8226 leukemia
[29] = test system: TK-10 renal
[30] = test system: SF-295 CNS
[31] = test system: HCT-116 colon
[32] = test system: OVCAR-8 ovarian
[33] = test system: CAKI-1 renal
[34] = test system: K-562 leukemia
[35] = test system: NCI-H23 lung
[36] = test system: IGROV1 ovarian
[37] = test system: UO-31 renal
[38] = test system: U251 CNS
[39] = test system: MOLT-4 leukemia
[40] = test system: LXFL 529 NSCLC
[41] = test system: KM20L2 colon
[42] = test system: SW-620 colon
[43] = test system: 786-0 renal
[44] = test system: SNB-19 CNS
[45] = test system: NCI-H226 lung
[46] = test system: KM12 colon
[47] = test system: OVCAR-3 ovarian
[48] = test system: HOP-62 NSCLC
[49] = test system: HCC-2998 colon
[50] = test system: OVCAR-5 ovarian
[51] = test system: OVCAR-4 ovarian
[52] = test system: MALME-3M melanoma
[53] = test system: UACC-257 melanoma
[54] = test system: NCI-H460 lung
[55] = test system: SK-MEL-2 melanoma
[56] = test system: SNB-78 CNS
[57] = test system: SNB-75 CNS
[58] = test system: SR leukemia

## Cn1c2c(c3ccccc31)CCN(CCCN1CCN(c3ccccc3)CC1)C2=O
[1]
  TGI: 65.7 µM
[2]
  TGI: 52.4 µM
[3]
  TGI: 38.2 µM
[4]
  TGI: 32.6 µM
[5]
  TGI: 32.8 µM
[6]
  TGI: 37 µM
[7]
  TGI: 30.9 µM
[8]
  TGI: 32.9 µM
[9]
  TGI: 50 µM
[10]
  TGI: 37 µM
[11]
  TGI: 37 µM
[12]
  TGI: 46.7 µM
[13]
  TGI: 27.8 µM
[14]
  TGI: 46.6 µM
[15]
  TGI: 42.1 µM
[16]
  TGI: 60 µM
[17]
  TGI: 61 µM
[18]
  TGI: 31.7 µM
[19]
  TGI: > 100 µM
[20]
  TGI: 33.6 µM
[21]
  TGI: 38.1 µM
[22]
  TGI: 26.7 µM
[23]
  TGI: 44.7 µM
[24]
  TGI: 36.7 µM
[25]
  TGI: 37.4 µM
[26]
  TGI: 77.6 µM
[27]
  TGI: 31.7 µM
[28]
  TGI: 36.7 µM
[29]
  TGI: 35.4 µM
[30]
  TGI: 37.8 µM
[31]
  TGI: 29.8 µM
[32]
  TGI: 59.6 µM
[33]
  TGI: 30.8 µM
[34]
  TGI: 38.3 µM
[35]
  TGI: 46.8 µM
[36]
  TGI: 38 µM
[37]
  TGI: 30.3 µM
[38]
  TGI: 30.2 µM
[39]
  TGI: 36.7 µM
[40]
  TGI: 36.3 µM
[41]
  TGI: 25.4 µM
[42]
  TGI: 55.7 µM
[43]
  TGI: 39.1 µM

## CN(CC1NCCCC1O)C12CC3CC(CC(C3)C1)C2 (stereo unspecified)
[1]
  TGI: > 100 µM
[2]
  TGI: > 100 µM
[3]
  TGI: > 100 µM
[44]
  TGI: > 100 µM
[45]
  TGI: > 100 µM
[5]
  TGI: > 100 µM
[6]
  TGI: > 100 µM
[7]
  TGI: > 100 µM
[8]
  TGI: > 100 µM
[9]
  TGI: > 100 µM
[10]
  TGI: > 100 µM
[11]
  TGI: > 100 µM
[46]
  TGI: > 100 µM
[12]
  TGI: > 100 µM
[47]
  TGI: > 100 µM
[13]
  TGI: > 100 µM
[14]
  TGI: > 100 µM
[48]
  TGI: > 100 µM
[16]
  TGI: > 100 µM
[17]
  TGI: > 100 µM
[18]
  TGI: > 100 µM
[19]
  TGI: > 100 µM
[20]
  TGI: > 100 µM
[49]
  TGI: > 100 µM
[21]
  TGI: > 100 µM
[50]
  TGI: > 100 µM
[22]
  TGI: > 100 µM
[23]
  TGI: > 100 µM
[25]
  TGI: > 100 µM
[26]
  TGI: > 100 µM
[51]
  TGI: > 100 µM
[27]
  TGI: > 100 µM
[28]
  TGI: > 100 µM
[29]
  TGI: > 100 µM
[52]
  TGI: > 100 µM
[30]
  TGI: > 100 µM
[32]
  TGI: > 100 µM
[33]
  TGI: > 100 µM
[34]
  TGI: > 100 µM
[35]
  TGI: > 100 µM
[36]
  TGI: > 100 µM
[37]
  TGI: > 100 µM
[38]
  TGI: > 100 µM
[39]
  TGI: > 100 µM
[53]
  TGI: > 100 µM
[40]
  TGI: > 100 µM
[41]
  TGI: > 100 µM
[54]
  TGI: > 100 µM
[42]
  TGI: > 100 µM
[43]
  TGI: > 100 µM

## CC(C)OC(=O)c1cccnc1/C=N/O
[1]
  TGI: > 100 µM
[55]
  TGI: > 100 µM
[2]
  TGI: > 100 µM
[3]
  TGI: > 100 µM
[44]
  TGI: > 100 µM
[45]
  TGI: > 100 µM
[5]
  TGI: > 100 µM
[6]
  TGI: > 100 µM
[7]
  TGI: > 100 µM
[9]
  TGI: > 100 µM
[56]
  TGI: > 100 µM
[10]
  TGI: > 100 µM
[11]
  TGI: > 100 µM
[46]
  TGI: > 100 µM
[12]
  TGI: > 100 µM
[47]
  TGI: > 100 µM
[13]
  TGI: > 100 µM
[14]
  TGI: > 100 µM
[15]
  TGI: > 100 µM
[48]
  TGI: > 100 µM
[16]
  TGI: > 100 µM
[17]
  TGI: > 100 µM
[19]
  TGI: > 100 µM
[20]
  TGI: > 100 µM
[49]
  TGI: > 100 µM
[21]
  TGI: > 100 µM
[50]
  TGI: > 100 µM
[22]
  TGI: > 100 µM
[23]
  TGI: > 100 µM
[25]
  TGI: > 100 µM
[26]
  TGI: > 100 µM
[27]
  TGI: > 100 µM
[28]
  TGI: > 100 µM
[29]
  TGI: > 100 µM
[52]
  TGI: > 100 µM
[30]
  TGI: > 100 µM
[31]
  TGI: > 100 µM
[32]
  TGI: > 100 µM
[33]
  TGI: > 100 µM
[57]
  TGI: > 100 µM
[34]
  TGI: > 100 µM
[35]
  TGI: > 100 µM
[36]
  TGI: > 100 µM
[37]
  TGI: > 100 µM
[38]
  TGI: > 100 µM
[39]
  TGI: > 100 µM
[53]
  TGI: > 100 µM
[40]
  TGI: > 100 µM
[41]
  TGI: > 100 µM
[54]
  TGI: > 100 µM
[42]
  TGI: > 100 µM
[43]
  TGI: > 100 µM

## C=CNC(=S)n1nc(-c2ccccc2NC(=O)C(F)(F)F)c(=O)n(C(=S)NC=C)c1=S
[1]
  TGI: > 100 µM
[55]
  TGI: > 100 µM
[2]
  TGI: > 100 µM
[3]
  TGI: > 100 µM
[4]
  TGI: > 100 µM
[44]
  TGI: > 100 µM
[45]
  TGI: 86.6 µM
[6]
  TGI: > 100 µM
[7]
  TGI: 60.5 µM
[9]
  TGI: > 100 µM
[56]
  TGI: > 100 µM
[11]
  TGI: 73 µM
[46]
  TGI: > 100 µM
[12]
  TGI: > 100 µM
[47]
  TGI: 28.8 µM
[13]
  TGI: 83 µM
[14]
  TGI: 49.3 µM
[15]
  TGI: 35.5 µM
[48]
  TGI: 86 µM
[16]
  TGI: > 100 µM
[17]
  TGI: > 1 µM
[18]
  TGI: 36.5 µM
[19]
  TGI: 46 µM
[49]
  TGI: > 100 µM
[21]
  TGI: 28.9 µM
[50]
  TGI: > 100 µM
[22]
  TGI: 60.1 µM
[58]
  TGI: 73.7 µM
[23]
  TGI: > 100 µM
[24]
  TGI: > 100 µM
[25]
  TGI: > 100 µM
[26]
  TGI: 69.3 µM
[51]
  TGI: 19.6 µM
[27]
  TGI: > 1 µM
[29]
  TGI: > 100 µM
[52]
  TGI: > 100 µM
[30]
  TGI: 81.6 µM
[31]
  TGI: > 100 µM
[32]
  TGI: > 100 µM
[33]
  TGI: > 100 µM
[57]
  TGI: 62.8 µM
[34]
  TGI: > 100 µM
[35]
  TGI: > 100 µM
[36]
  TGI: > 100 µM
[37]
  TGI: 73.6 µM
[38]
  TGI: > 100 µM
[39]
  TGI: > 100 µM
[40]
  TGI: > 100 µM
[54]
  TGI: 47.3 µM
[42]
  TGI: > 100 µM
[43]
  TGI: > 1 µM

— PubChem BioAssay (NCI)
